Reference: patent US12036222B2, “Methods of treating cancers overexpressing CARM1 with EZH2 inhibitors and a PARP inhibitor” (The Wistar Institut of Anatomy and Biology, priority 2018, dated 2024)
Entries after “also recorded” stand apart in the source; their conditions may differ.

What was measured:
[1] = system: CARM1-expressing cell lines (A1847, OVCAR10, and PEO4); assay: Colony formation assay and GSK126 response curves in CARM1-expressing ovarian cancer cell lines; type: cell-based, human
Experimental: In FIG. 4, CARM1 expression in a panel of high-grade ovarian carcinomas is depicted. FIG. 5 illustrates the results of a colony formation assay with a panel of normal and ovarian cancer cell lines with DMSO and with 10 μM of the EZH2 inhibitor GSK126 (Formula (1)).
In FIG. 7, response curves for GSK126 in a panel of normal and ovarian cancer cell lines are shown.
(§1) 500 to 5,000 cell were plated into a 24 well tissue culture plate and treated with the indicated compounds. Medium was changed every three days with appropriate drug doses for 12 days or until control wells became confluent. Colonies were washed twice with PBS and fixed with 10% methanol and 10% acetic acid in distilled water. Fixed colonies were stained with 0.005% crystal violet. Integrated density was measured using NIH ImageJ software.

HOSE or FTE cells = assay: Colony formation assay in normal HOSE and FTE cells; type: cell-based, human; conditions: 10 μM GSK126, colony formation
Experimental: FIG. 33 illustrates relative growth of the indicated HOSE, FTE, and EOC cancer cell lines with high or low CARM1 expression treated with 10 μM GSK126 or vehicle in a colony formation assay as determined by NIH Image J quantification.
as §1

TIMP3 = assay: qRT-PCR of BAF155Me target gene in cells; type: cell-based, human; conditions: parental and CARM1 knockout A1847 cells, 10 μM GSK126
Experimental: FIG. 57 illustrates the relative mRNA expression of BAF155Me target gene TIMP3, which was determined by qRT-PCR. Parental control and CARM1 knockout A1847 cells were treated with 10 μM GSK126 or vehicle controls. *p<0.001. Mean of three independent experiments with SEM.
RNA was isolated by RNeasy Mini Kit (Qiagen). mRNA relative expression for DAB2, DLC1, and PMAIP was determined using SYBR green 1-step iScript (Bio-Rad) with a Life Technologies QuantStudio 3. The primers were: 5′-[…]-3′ (DAB2 forward (SEQ ID NO: 2)) and 5′-[…]-3′ (DAB2 reverse (SEQ ID NO: 3)); 5′-[…]-3′ (DLC1 forward (SEQ ID NO: 4)) and 5′-[…]-3′ (DLC1 reverse (SEQ ID NO: 5)); 5′-[…]-3′ (NOXA forward (SEQ ID NO: 6)) and 5′-[…]-3′ (NOXA reverse (SEQ ID NO: 7)); and 5′-[…]-3′ (TIMP3 forward (SEQ ID NO: 8)) and 5′-[…]-3′ (TIMP3 reverse (SEQ ID NO: 9)).

[2] = system: promoter regions of the human DAB2, DLC1, and NOXA genes; assay: ChIP-qPCR at promoters of EZH2/BAF155 target genes; type: cell-based; conditions: A1847 cells
Excerpt: FIGS. 58 to 61 illustrate the results of a ChIP analysis using anti-EZH2 (FIG. 58), anti-H3K27Me3 (FIG. 59), anti-BAF155 (FIG. 60), or anti-RNA Pol II (FIG. 61) antibodies. An isotype matched IgG was used as a negative control. ChIP products were subjected to qPCR analysis using primers specific for the promoter regions of the human DAB2, DLC1, and NOXA genes. Data is representative of three independent experiments. * p<0.001 compared with IgG controls and #p<0.001 compared with parental controls.
ChIP was performed as described in Tu et al. Developmental Cell(2011) 21:1077-91. The following antibodies were used to perform ChIP: anti-H3K27Me3 (Cell Signaling, Cat. No: 9733), anti-BAF155 (Santa Cruz, Cat. No: sc-9746), anti-RNA polymerase II (Santa Cruz, Cat. No: sc-899) or anti-EZH2 (Cell Signaling, Cat. No: 5246). An isotype matched IgG was used as a negative control. ChIP DNA was analyzed by quantitative PCR against the promoter of the indicated genes using the following primers: DAB2 Forward: 5′-[…]-3′ (SEQ ID NO: 10) and DAB2 Reverse: 5′-[…]-3′ (SEQ ID NO: 11); DLC1 Forward: 5′-[…]-3′ (SEQ ID NO: 12) and DLC1 Reverse: 5′-[…]-3′ (SEQ ID NO: 13); NOXA Forward: 5′-[…]-3′ (SEQ ID NO: 14) and NOXA Reverse: 5′-[…]-3′ (SEQ ID NO: 15); TIMP3 Forward: 5′-[…]-3′ (SEQ ID NO: 16) and TIMP3 Reverse: 5′-[…]-3′ (SEQ ID NO: 17).

[3] = system: CARM1-expressing A1847 tumors; assay: Subcutaneous xenograft model, CARM1-expressing A1847 cells; type: in vivo, NSG mice; conditions: 50 mg/kg daily i.p., three weeks
Experimental: The protocols were approved by the Institutional Animal Care and Use Committee (IACUC). 5×10^6 control A1847 or A1847 CARM1 knockout cells were unilaterally injected subcutaneously into 6-8-week old female immunocompromised NSG mice (n=5 per group). One week after injection the mice were randomized and treated with vehicle control (20% captisol) or GSK126 (50 mg/kg daily). Tumor size was measured every 3 days for 3 weeks. At end of the experiments, tumors were surgically dissected and tumor burden was calculated based on tumor weight.
EZH2 inhibitors, such as GSK126, are used safely in clinical trials for hematopoietic malignancies (Ribrag et al. Eur J Cancer (2014) 50:197). To determine the effects of EZH2 inhibition in vivo on the growth of CARM1-expressing ovarian tumors, two xenograft models were utilized. In the subcutaneous xenograft models, the injected CARM1-expressing A1847 cells were first allowed to grow for one week to establish the tumors. Mice were then randomized and treated daily with vehicle control or GSK126 (50 mg/kg) by intraperitioneal (i.p.) injection as reported (see, e.g., Bitler et al. Nature Medicine (2015) 21:231-8 and McCabe et al. Nature (2012) 492:108-12). […] To more closely mimic the tumor microenvironment, A1847 cells were orthotopically transplanted into the bursa covering the ovary of immunocompromised NSG mice. […]

NHEJ genes = assay: Expression of NHEJ genes; type: cell-based; conditions: CARM1 expressing cells

## CC[C@H](C)n1cc(C)c2c(C(=O)NCc3c(C)cc(C)[nH]c3=O)cc(-c3ccc(N4CCNCC4)nc3)cc21 [GSK126, (S)-1-(sec-butyl)-N-((4,6-dimethyl-2-oxo-1,2-dihydropyridin-3-yl)methyl)-3-methyl-6-(6-(piperazin-1-yl)pyridin-3-yl)-1H-indole-4-carboxamide]
[1]; 10 μM GSK126 vs DMSO, panel of normal and ovarian cancer cell lines
  sensitivity in colony formation assay: particular sensitivity of CARM1-expressing cells
[1]; CARM1-expressing lines A1847, OVCAR10, PEO4 compared with rest of panel of normal and ovarian cancer cell lines, numbers only in FIG. 8
  IC50 values from GSK126 response curves: Significantly reduced IC50 values
[1]; panel of EOC cell lines, 10 μM GSK126
  correlation of cellular response with CARM1 expression levels: correlation between CARM1 expression levels and cellular response to GSK126
HOSE or FTE cells
  growth of HOSE or FTE cells: did not affect the growth; also recorded: didn't affect the growth
TIMP3
  expression of BAF155Me target gene TIMP3: downregulated by CARM KO but not by EZH2 inhibitor GSK126
[2]
  EZH2 association with target genes: without affecting EZH2's association with its target genes
  H3K27Me3 occupancy at target gene loci: decreased H3K27Me3 occupancy
[3]
  growth of CARM1-expressing tumors: significantly inhibited the growth
NHEJ genes
  expression of NHEJ genes: restores the expression of NHEJ genes
